Assay: Water absorption from the atmosphere at 95% relative atmospheric humidity
Type: physicochemical
Conditions: relative atmospheric humidity of 95% (saturated solution of Na2HPO4×12 H2O with sediment in water); within one day
Description: At a relative atmospheric humidity of 95% (established using a saturated solution of Na2HPO4×12 H2O with sediment in water), the solid obtained according to this procedure absorbs approximately 17% by weight of water within one day.
At a relative atmospheric humidity of 95% (established using a saturated solution of Na2HPO4×12 H2O with sediment in water), the solid obtained according to this procedure absorbs approximately 3% by weight of water within one day.

Row | water absorbed by the solid | Structure (SMILES)
1 | approximately 17 % by weight | N#Cc1c(N2C[C@@H]3CCCN[C@@H]3C2)c(F)cc2c(=O)c(C(=O)O)cn(C3CC3)c12 [Comparative Example, 8-cyano-1-cyclopropyl-7-(1S,6S-2,8-diazabicyclo[4.3.0]nonan-8-yl)-6-fluoro-1,4-dihydro-4-oxo-3-quinolinecarboxylic acid]
2 | approximately 3 % by weight | N#Cc1c(N2C[C@@H]3CCCN[C@@H]3C2)c(F)cc2c(=O)c(C(=O)O)cn(C3CC3)c12 [Example 1, 8-cyano-1-cyclopropyl-7-(1S,6S-2,8-diazabicyclo[4.3.0]nonan-8-yl)-6-fluoro-1,4-dihydro-4-oxo-3-quinolinecarboxylic acid]

Source: patent US6436955B1, “Crystal modification A of 8-cyano-1-cyclopropyl-7-(is,6s-2,8-diazabicyclo[4.3.0]nonan-8-yl)-6-fluoro-1,4-dihydro-4-oxo-3-quinolinecarboxylic acid” (Bayer Aktiengesellschaft, priority 1998, dated 2002)
